Experimental data reported in patent publication US9593305B2, “Differentiation of pluripotent stem cells” (Janssen Biotech, Inc., priority 2008, dated 2017).
Where “and” joins values, the source holds several entries; their conditions need not be identical. Equal values may be shown once.

Test system: H1 human embryonic stem cells
Assay: Compounds and growth factors with low dose activin A (Example 9, Table 9)
Assay type: cell-based
Procedure: Clusters of H1 human embryonic stem cells were grown on reduced growth factor […]™ (Invitrogen; Cat #356231)-coated tissue culture plastic. Cells were passaged using collagenase (Invitrogen; Cat #17104-019) treatment and gentle scraping, washed to remove residual enzyme, and plated with even dispersal at a ratio of 1:1 (surface area) on reduced growth factor […]™-coated 96-well black plates (Packard ViewPlates; PerkinElmer; Cat #6005182) using volumes of 100 μl/well. Cells were allowed to attach as clusters and then recover log phase growth over a 1 to 3 day period, feeding daily with MEF conditioned medium supplemented with 8 ng/ml bFGF (R&D Systems; Cat #233-FB). Plates were maintained at 37° C., 5% CO2 in a humidified box throughout the duration of assay.
Stocks of growth factors purchased from R&D Systems were EGF (Cat #236-EG), FGF4 (Cat #235-F4), PDGF-A (Cat #221-AA), PDGF-D (Cat #1159-SB), PDGF-A/B (Cat #222-AB), VEGF (Cat #293-VE), and GDF-8 (Cat #788-08). Activin A was purchased from PeproTech (Cat #). Muscimol was purchased from Tocris (Cat #0289). All growth factors were solubilized in PBS with 0.1% BSA (Sigma; Cat #A7888) and stored frozen at −80° C. Muscimol was solubilized in 100% DMSO (Sigma; Cat #D2650) and stored frozen at −80° C. The compounds were available as 5 mM stocks in 96-well plate format, solubilized in 100% DMSO and stored at −80° C. The compounds were further diluted to an intermediate concentration of 0.2 mM in 50 mM HEPES (Invitrogen; Cat #15630-080), 20% DMSO and stored at 4° C. All growth factors and inhibitors were prepared in a deep well, 96-well polypropylene plate, diluted to 5× intermediate stocks in DMEM:F12 base medium at the beginning of assay and stored at 4° C.
A secondary screening assay was conducted, testing in triplicate and feeding on alternate days over the four-day assay timeframe. Assays were initiated by aspirating culture medium from each well followed by three washes in PBS to remove residual growth factors and serum. Test volumes of 80 μl per well were added back containing DMEM:F12 base medium (Invitrogen; Cat #11330-032) supplemented with 0.625% FCS (HyClone; Cat #SH30070.03), 25 ng/ml Wnt3a (R&D Systems), 12.5 ng/ml activin A, and 3.125 μM compound plus 20 μl 5× stock of growth factor or small molecule to yield a final concentration of 0.5% FCS, 20 ng/ml Wnt3a, 10 ng/ml activin A, and 2.5 μM compound. All remaining growth factors were tested at a final assay concentration of 50 ng/ml (EGF, FGF4, PDGF-A, PDGF-A/B, VEGF), with the exception of GDF-8 used at 25 ng/ml. Final assay concentration of muscimol was 20 μM. Positive control wells (100 μl/well) contained the same base medium supplemented with 0.5% FCS, 20 ng/ml Wnt3a and 10 ng/ml (low dose) or 100 ng/ml (high dose) activin A. Negative control wells (100 μl/well) contained the same base medium with 0.5% FCS and 20 ng/ml Wnt3a, omitting activin A.
Positive control wells (100 μl/well) contained the same base medium supplemented with 2% FCS and 10 ng/ml or 100 ng/ml activin A, omitting Wnt3a. Negative control wells (100 μl/well) contained the same base medium with 2% FCS, omitting both activin A and Wnt3a.
At the conclusion of four-days of culture, assay plates were washed twice with PBS, fixed with 4% paraformaldehyde (Alexis Biochemical; Cat #ALX-350-011) at room temperature for 20 minutes, then washed three times with PBS and permeabilized with 0.5% Triton X-100 (Sigma; Cat #T8760-2) for 20 minutes at room temperature. Cells were washed again three times with PBS and blocked with 4% chicken serum (Invitrogen; Cat #16110082) in PBS for 30 minutes at room temperature. Primary antibody (goat anti-human SOX17; R&D Systems; cat #AF1924) was diluted 1:100 in 4% chicken serum and added to each well for one hour at room temperature. […]

[1] = 10 ng/ml AA + compound + EGF + FGF4 + PDGF-A + Muscimol + Wnt3a
[2] = 10 ng/ml AA + compound + EGF + FGF4 + PDGF-A + VEGF + PDGF-D + Muscimol + GDF8 + Wnt3a
[3] = 10 ng/ml AA + compound + EGF + FGF4 + PDGF-AB + VEGF + Wnt3a
[4] = 10 ng/ml AA + compound + EGF + FGF4 + PDGF-AB + Wnt3a
[5] = 10 ng/ml AA + compound + EGF + FGF4 + Wnt3a
[6] = 10 ng/ml AA + compound + EGF + Wnt3a
[7] = 10 ng/ml AA + compound + FGF4 + Wnt3a
[8] = 10 ng/ml AA alone, no compound, no growth factors
[9] = 100 ng/ml AA alone, no compound, no growth factors

Compound | Cell Number, % of positive control [1] | Cell Number, Average Total Cell Number [1] | Sox17 Expression, % of positive control [1] | Sox17 Expression, Average Total Intensity [1] | Cell Number, % of positive control [2] | Cell Number, Average Total Cell Number [2] | Sox17 Expression, % of positive control [2] | Sox17 Expression, Average Total Intensity [2] | Cell Number, % of positive control [3] | Cell Number, Average Total Cell Number [3] | Sox17 Expression, % of positive control [3] | Sox17 Expression, Average Total Intensity [3] | Cell Number, % of positive control [4] | Cell Number, Average Total Cell Number [4] | Sox17 Expression, % of positive control [4] | Sox17 Expression, Average Total Intensity [4] | Cell Number, % of positive control [5] | Cell Number, Average Total Cell Number [5] | Sox17 Expression, % of positive control [5] | Sox17 Expression, Average Total Intensity [5] | also measured
CCN1CC(=O)NCCCc2cncc(c2)-c2ncnc(n2)Nc2cc(Cl)cc(c2)C1 [Compound 35, 10-Chloro-14-ethyl-3,5,7,14,17,23,27-heptaazatetracyclo[19.3.1.1˜2,6˜0.1˜8,12]Theptacosa-1(25), 2(27), 3,5,8(26), 9,11,21,23-nonaen-16-one] | 62.29 % of positive control | 3820 | −1.46 % of positive control | −1.67E+06 | 41.14 % of positive control | 2522 | −4.25 % of positive control | −4.86E+06 | 56.74 % of positive control | 3479 | −3.46 % of positive control | −3.96E+06 | 53.21 % of positive control | 3263 | −3.99 % of positive control | −4.56E+06 | 44.10 % of positive control | 2704 | −3.65 % of positive control | −4.17E+06 | Cell Number, % of positive control [6]: 2.53 % of positive control; Cell Number, Average Total Cell Number [6]: 155; Sox17 Expression, % of positive control [6]: −6.84 % of positive control; Sox17 Expression, Average Total Intensity [6]: −7.82E+06; Cell Number, % of positive control [7]: 4.64 % of positive control; Cell Number, Average Total Cell Number [7]: 284; Sox17 Expression, % of positive control [7]: −6.59 % of positive control; Sox17 Expression, Average Total Intensity [7]: −7.54E+06; Cell Number, % of positive control (10 ng/ml AA + compound + Wnt3a): 2.83 % of positive control; Cell Number, Average Total Cell Number (10 ng/ml AA + compound + Wnt3a): 173; Sox17 Expression, % of positive control (10 ng/ml AA + compound + Wnt3a): −6.66 % of positive control; Sox17 Expression, Average Total Intensity (10 ng/ml AA + compound + Wnt3a): −7.61E+06
Activin A: recombinant human activin A (PeproTech), TGF-beta family member |  |  |  |  |  |  |  |  |  |  |  |  |  |  |  |  |  |  |  |  | Cell Number, % of positive control [8]: 67.67 % of positive control and 100.00 % of positive control; Cell Number, Average Total Cell Number [8]: 5177 and 6132; Cell Number, % of positive control [9]: 100.00 % of positive control and 157.51 % of positive control; Cell Number, Average Total Cell Number [9]: 7650 and 9658; Sox17 Expression, % of positive control [9]: 100.00 % of positive control; Sox17 Expression, Average Total Intensity [9]: 1.11E+08 and 1.14E+08
O=C1NCCCc2cncc(c2)-c2ncnc(n2)Nc2cc(Cl)cc(c2)CN2CCCC1C2 (stereo not drawn) [Compound 37, 10-Chloro-3,5,7,14,20,26,31-heptaazapentacyclo[22.3.1.1˜2,6˜0.1˜8,12˜0.1˜14,18˜]hentriaconta-1(28), 2(31), 3,5,8(30), 9,11,24,26-nonaen-19-one] | 59.34 % of positive control | 4540 | 0.83 % of positive control | 9.23E+05 | 74.65 % of positive control | 5711 | 10.82 % of positive control | 1.21E+07 | 62.31 % of positive control | 4767 | −0.46 % of positive control | −5.16E+05 | 55.20 % of positive control | 4223 | −0.55 % of positive control | −6.15E+05 | 45.77 % of positive control | 3501 | 0.50 % of positive control | 5.60E+05 | Cell Number, % of positive control [6]: 18.70 % of positive control; Cell Number, Average Total Cell Number [6]: 1431; Sox17 Expression, % of positive control [6]: −2.47 % of positive control; Sox17 Expression, Average Total Intensity [6]: −2.75E+06; Cell Number, % of positive control [7]: 51.37 % of positive control; Cell Number, Average Total Cell Number [7]: 3930; Sox17 Expression, % of positive control [7]: −1.69 % of positive control; Sox17 Expression, Average Total Intensity [7]: −1.88E+06; Cell Number, % of positive control (10 ng/ml AA + compound + Wnt3a): 10.34 % of positive control; Cell Number, Average Total Cell Number (10 ng/ml AA + compound + Wnt3a): 791; Sox17 Expression, % of positive control (10 ng/ml AA + compound + Wnt3a): −2.68 % of positive control; Sox17 Expression, Average Total Intensity (10 ng/ml AA + compound + Wnt3a): −2.99E+06
O=C1NCCCc2cncc(c2)-c2ncnc(n2)Nc2cccc(c2)CN2CCC1CC2 [Compound 22, 1,8,10,12,16,22,30-Heptaazapentacyclo[22.2.2.1-3,7˜0.1˜9,13˜1-14,18˜]hentriaconta-3(31), 4,6,9(30), 10,12,14(29), 15,17-nonaen-23-one] | 132.10 % of positive control | 8100 | 38.65 % of positive control | 4.42E+07 | 139.53 % of positive control | 8556 | 76.82 % of positive control | 8.78E+07 | 124.87 % of positive control | 7657 | 41.09 % of positive control | 4.70E+07 | 130.06 % of positive control | 7975 | 30.03 % of positive control | 3.43E+07 | 159.83 % of positive control | 9800 | 40.13 % of positive control | 4.59E+07 | Cell Number, % of positive control [6]: 81.55 % of positive control; Cell Number, Average Total Cell Number [6]: 5001; Sox17 Expression, % of positive control [6]: 24.45 % of positive control; Sox17 Expression, Average Total Intensity [6]: 2.80E+07; Cell Number, % of positive control [7]: 105.84 % of positive control; Cell Number, Average Total Cell Number [7]: 6490; Sox17 Expression, % of positive control [7]: 37.43 % of positive control; Sox17 Expression, Average Total Intensity [7]: 4.28E+07; Cell Number, % of positive control (10 ng/ml AA + compound + Wnt3a): 74.09 % of positive control; Cell Number, Average Total Cell Number (10 ng/ml AA + compound + Wnt3a): 4543; Sox17 Expression, % of positive control (10 ng/ml AA + compound + Wnt3a): 26.65 % of positive control; Sox17 Expression, Average Total Intensity (10 ng/ml AA + compound + Wnt3a): 3.05E+07
